From patent publication US12157730B2, “Heteroaryl derivative, method for producing same, and pharmaceutical composition comprising same as effective component” (VORONOI INC., priority 2019, dated 2024)

target: T1, Ba/F3 cell EGFR Exon20 ins NPH (Homo sapiens, UniProt P00533, INS773NPH); assay: Ba/F3 cell proliferation suppression, EGFR Exon20 ins NPH; type: cell-based; details: GI50 class; Ba/F3 cell line with NPH inserted at Exon20 of EGFR; 72 hours
T1 construct: expressed in transfected cells; host or cells: Ba/F3
Summary of the method: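 Seed 3000–5000 cells/well; after 24 h add compound (12 conc., 0.3 nM–50 um final); incubate 72 h; add CellTiter-Glo, 10 min room temperature; read luminescence; GI50 from % growth vs control, triplicate.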

SMILES | Ba/F3 (NPH) Activity
C=CC(=O)Nc1cc(Nc2cc(N3OCC[C@@H]3c3cccc(Cl)c3Cl)ncn2)c(OC)cc1N1CCC(N2C[C@@H]3C[C@H]2CN3CC)CC1 [compound 607, N-(5-((6-((R)-3-(2,3-dichlorophenyl)isoxazolidine-2-yl)pyrimidine-4-yl)amino)-2-(4-((1S,4S)-5-ethyl-2,5-diazabicyclo[2.2.1]heptane-2-yl)piperidine-1-yl)-4-methoxyphenyl) acrylamide] | A (GI50 < 50 nM)
C=CC(=O)Nc1cc(Nc2cc(N3OCC[C@@H]3c3ccccc3)ncn2)c(OC)cc1N1CCC(N2CCN(C3CC3)CC2)CC1 [Example 56, N-(2-(4-(4-cyclopropylpiperazine-1-yl)piperidine-1-yl)-4-methoxy-5-((6-((R)-3-phenylisoxazolidine-2-yl)pyrimidine-4-yl)amino)phenyl) acrylamide] | A (GI50 < 50 nM)
C=CC(=O)Nc1cc(Nc2cc(N3OCC[C@@H]3c3ccc(Cl)c(Cl)c3)ncn2)c(OC)cc1N(C)CCOC [compound 679, N-(5-((6-((R)-3-(3,4-dichlorophenyl)isoxazolidine-2-yl)pyrimidine-4-yl)amino)-4-methoxy-2-((2-methoxyethyl)(methyl)amino)phenyl) acrylamide] | B (50 nM ≤ GI50 < 500 nM)
C=CC(=O)Nc1cc(Nc2cc(N3OCC[C@@H]3c3ccc(Cl)cc3)ncn2)c(OC)cc1N1CC[C@@H](N2CCOCC2)C1 [compound 733, N-(5-((6-((R)-3-(4-chlorophenyl)isoxazolidine-2-yl)pyrimidine-4-yl)amino)-4-methoxy-2-((R)-3-morpholinopyrolidine-1-yl)phenyl)acrylamide] | A (GI50 < 50 nM)
C=CC(=O)Nc1cc(Nc2cc(N3OCC[C@@H]3c3cccc(Cl)c3C)ncn2)c(OC)cc1N1CC[C@@H](N(C)C)C1 [compound 586, N-(5-((6-((R)-3-(3-chloro-2-methylphenyl)isoxazolidine-2-yl)pyrimidine-4-yl)amino)-2-((R)-3-(dimethylamino)pyrolidine-1-yl)-4-methoxyphenyl) acrylamide] | A (GI50 < 50 nM)
C=CC(=O)Nc1cc(Nc2cc(N3OCC[C@@H]3Cc3cccc(F)c3C)ncn2)c(OC)cc1N1CCC(N2CCN(C3CC3)[C@H](C)C2)CC1 [compound 1004, N-(2-(4-((R)-4-cyclopropyl-3-methylpiperazine-1-yl)piperidine-1-yl)-5-((6-((S)-3-(3-fluoro-2-methylbenzyl)isoxazolidine-2-yl)pyrimidine-4-yl)amino)-4-methoxyphenyl) acrylamide] | A (GI50 < 50 nM)
C=CC(=O)Nc1cc(Nc2cc(N3OCC[C@@H]3c3ccc(C)nc3)ncn2)c(OC)cc1N1CCC(N(C)C)CC1 [Example 50, N-(2-(4-dimethylaminopiperidine-1-yl)-4-methoxy-5-((6-((R)-3-(6-methylpyridine-3-yl)isoxazolidine-2-yl)pyrimidine-4-yl)amino)phenyl) acrylamide] | B (50 nM ≤ GI50 < 500 nM)
C#Cc1cccc([C@H]2CCON2c2cc(Nc3cc(NC(=O)C=C)c(N4CCC(N5C[C@H]6C[C@@H]5CO6)CC4)cc3OC)ncn2)c1 [compound 619, N-(2-(4-((1R,4R)-2-oxa-5-azabicyclo [2.2.1]heptane-5-yl)piperidine-1-yl)-5-((6-((R)-3-(3-ethynylphenyl)isoxazolidine-2-yl)pyrimidine-4-yl)amino)-4-methoxyphenyl) acrylamide] | A (GI50 < 50 nM)
C=CC(=O)Nc1cc(Nc2cc(N3OCC[C@@H]3c3ccc(F)c(Cl)c3)ncn2)c(OC)cc1N1C[C@@H]2CCN(C)[C@@H]2C1 [compound 316, N-(5-((6-((R)-3-(3-chloro-4-fluorophenyl)isoxazolidine-2-yl)pyrimidine-4-yl)amino)-4-methoxy-2-((3aS,6aS)-1-methylhexahydropyrrolo [3,4-b]pyrrole-5(1H)-yl)phenyl)acrylamide] | A (GI50 < 50 nM)
